Test results published in ChEMBL document CHEMBL4765338, “Simple analogues of natural product chelerythrine: Discovery of a novel anticholinesterase 2-phenylisoquinolin-2-ium scaffold with excellent potency against acetylcholinesterase” (Eur J Med Chem, 2020).

Legend:
Acetylcholinesterase = Acetylcholinesterase (Homo sapiens, UniProt P22303)
Description: Inhibition of AChE (unknown origin) preincubated for 30 mins followed by substrate addition acetylthiocholineiodide measured after 40 mins by Ellman's method

Cholinesterase = Cholinesterase (Homo sapiens, UniProt P06276)
Description: Inhibition of BuChE (unknown origin) preincubated for 30 mins followed by substrate addition acetylthiocholineiodide measured after 40 mins by Ellman's method

N2a = test: Cytotoxicity against mouse N2a cells incubated for 48 hrs by MTT assay; assay type: cell-based
[1] = Cytotoxicity against porcine fetal kidney cells incubated for 48 hrs by MTT assay; assay type: cell-based; conditions: Sus scrofa, Fetal kidney cell
[2] = Cytotoxicity against goat fetal fibroblast cells incubated for 48 hrs by MTT assay; assay type: cell-based, Fetal fibroblast cell; conditions: Capra hircus

Sequence of Acetylcholinesterase (P22303 whole entry): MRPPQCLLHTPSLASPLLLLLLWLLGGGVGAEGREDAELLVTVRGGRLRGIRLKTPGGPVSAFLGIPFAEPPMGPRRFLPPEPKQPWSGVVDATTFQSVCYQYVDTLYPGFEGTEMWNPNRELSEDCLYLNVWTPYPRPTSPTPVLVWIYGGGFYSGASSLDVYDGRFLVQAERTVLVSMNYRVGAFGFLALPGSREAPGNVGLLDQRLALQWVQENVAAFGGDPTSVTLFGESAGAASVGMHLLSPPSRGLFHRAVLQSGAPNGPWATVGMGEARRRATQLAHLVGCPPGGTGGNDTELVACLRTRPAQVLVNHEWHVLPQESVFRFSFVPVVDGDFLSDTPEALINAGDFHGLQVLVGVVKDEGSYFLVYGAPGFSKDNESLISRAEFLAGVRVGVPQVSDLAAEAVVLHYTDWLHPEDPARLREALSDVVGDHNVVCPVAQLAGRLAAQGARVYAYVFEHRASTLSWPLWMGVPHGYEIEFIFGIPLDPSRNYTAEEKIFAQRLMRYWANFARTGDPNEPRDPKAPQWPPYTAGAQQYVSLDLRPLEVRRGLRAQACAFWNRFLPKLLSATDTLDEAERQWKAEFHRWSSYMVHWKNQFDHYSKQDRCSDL
Sequence of Cholinesterase (P06276 whole entry): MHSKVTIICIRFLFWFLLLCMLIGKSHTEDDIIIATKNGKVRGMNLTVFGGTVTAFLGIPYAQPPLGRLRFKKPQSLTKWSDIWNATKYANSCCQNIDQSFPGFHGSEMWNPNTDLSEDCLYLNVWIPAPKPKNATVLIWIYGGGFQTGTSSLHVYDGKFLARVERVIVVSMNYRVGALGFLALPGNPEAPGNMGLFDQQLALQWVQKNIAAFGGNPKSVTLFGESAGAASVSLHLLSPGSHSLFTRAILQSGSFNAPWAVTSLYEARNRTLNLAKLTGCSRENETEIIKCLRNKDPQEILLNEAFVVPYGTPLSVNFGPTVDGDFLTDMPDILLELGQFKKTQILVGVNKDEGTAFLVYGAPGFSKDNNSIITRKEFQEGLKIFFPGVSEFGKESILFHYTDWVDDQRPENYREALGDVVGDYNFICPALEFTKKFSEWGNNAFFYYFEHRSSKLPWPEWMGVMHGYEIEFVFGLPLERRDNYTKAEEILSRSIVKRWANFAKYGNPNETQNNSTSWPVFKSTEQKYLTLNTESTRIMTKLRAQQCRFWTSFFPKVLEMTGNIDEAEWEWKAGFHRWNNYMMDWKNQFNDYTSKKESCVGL

## COc1cccc2c1C=[N+](c1ccc(Br)cc1F)CC2
Acetylcholinesterase
  IC50: 1.29 µM
Cholinesterase
  IC50: 69.3 µM

## COc1cccc2c1C=[N+](c1cccc(Cl)c1)CC2
Acetylcholinesterase
  IC50: > 10 µM

## COc1cccc2cc[n+](-c3ccc(Br)cc3F)cc12
Acetylcholinesterase
  IC50: 0.9 µM
Cholinesterase
  IC50: 196 µM

## COc1cccc2cc[n+](-c3ccc(C#N)cc3)cc12
Acetylcholinesterase
  IC50: > 10 µM

## COc1cccc2c1C=[N+](c1cccc(I)c1)CC2
Acetylcholinesterase
  IC50: > 10 µM

## COc1cccc2cc[n+](-c3cccc(I)c3)cc12
Acetylcholinesterase
  IC50: > 10 µM

## COc1cccc2cc[n+](-c3cccc(C(F)(F)F)c3)cc12
Acetylcholinesterase
  IC50: > 10 µM

## COc1cccc2c1C=[N+](c1ccccc1C#N)CC2
Acetylcholinesterase
  IC50: > 10 µM

## COc1cccc2c1C=[N+](c1ccc(C#N)cc1)CC2
Acetylcholinesterase
  IC50: > 10 µM

## COc1cccc2cc[n+](-c3ccc(C)cc3)cc12
Acetylcholinesterase
  IC50: 1.08 µM
Cholinesterase
  IC50: > 250 µM

## COc1cccc2c1C=[N+](c1ccc(Cl)cc1Cl)CC2
Acetylcholinesterase
  IC50: 1.04 µM
Cholinesterase
  IC50: 90.5 µM

## COc1ccc2c(c[n+](C)c3c4cc5c(cc4ccc23)OCO5)c1OC [CHELERYTHRINE]
Acetylcholinesterase
  IC50: 1.45 µM
Cholinesterase
  IC50: 8.58 µM

## COc1ccccc1[N+]1=Cc2c(cccc2OC)CC1
Acetylcholinesterase
  IC50: > 10 µM

## COc1cccc2cc[n+](-c3ccc(C(F)(F)F)cc3)cc12
Acetylcholinesterase
  IC50: 0.69 µM
Cholinesterase
  IC50: 33.5 µM

## COc1cccc2cc[n+](-c3cccc(C#N)c3)cc12
Acetylcholinesterase
  IC50: 3.41 µM
Cholinesterase
  IC50: > 250 µM

## COc1cccc2c1C=[N+](c1c(F)cccc1F)CC2
Acetylcholinesterase
  IC50: 1.29 µM
Cholinesterase
  IC50: 105 µM

## COc1cccc2c1C=[N+](c1ccccc1)CC2
Acetylcholinesterase
  IC50: 1.62 µM
Cholinesterase
  IC50: 35.4 µM

## Brc1ccc([N+]2=Cc3ccccc3CC2)cc1
Acetylcholinesterase
  IC50: 10.5 µM
Cholinesterase
  IC50: 63.7 µM

## COc1cccc2c1C=[N+](c1ccc(Br)cc1)CC2
N2a
  IC50: 20.3 µM
[1]
  IC50: 19.2 µM
[2]
  IC50: 20.6 µM
Acetylcholinesterase
  IC50: 0.28 µM
Cholinesterase
  IC50: 20.7 µM

## COc1cccc2cc[n+](-c3ccccc3F)cc12
Acetylcholinesterase
  IC50: 2.55 µM
Cholinesterase
  IC50: 80.9 µM

## COc1cccc([N+]2=Cc3c(cccc3OC)CC2)c1
Acetylcholinesterase
  IC50: 5.23 µM
Cholinesterase
  IC50: 77.3 µM

## Brc1ccc(-[n+]2ccc3ccccc3c2)cc1
Acetylcholinesterase
  IC50: 2.39 µM
Cholinesterase
  IC50: 130 µM

## C[n+]1cc2c3c(ccc2c2ccc4cc5c(cc4c21)OCO5)OCO3
Acetylcholinesterase
  IC50: 1.22 µM
Cholinesterase
  IC50: 7.08 µM

## COc1cccc2c1C=[N+](c1ccc(F)cc1)CC2
Acetylcholinesterase
  IC50: 1.99 µM
Cholinesterase
  IC50: 113 µM

## COc1cccc2cc[n+](-c3ccccc3C(F)(F)F)cc12
Acetylcholinesterase
  IC50: > 10 µM

## COc1cccc2cc[n+](-c3ccc(I)cc3F)cc12
Acetylcholinesterase
  IC50: 1.23 µM
Cholinesterase
  IC50: 89.8 µM

## COc1cccc2cc[n+](-c3ccccc3Cl)cc12
Acetylcholinesterase
  IC50: 5.33 µM
Cholinesterase
  IC50: 67.2 µM

## COc1cccc2c1C=[N+](c1cccc(C(F)(F)F)c1)CC2
Acetylcholinesterase
  IC50: > 10 µM

## COc1cccc2c1C=[N+](c1ccccc1C)CC2
Acetylcholinesterase
  IC50: 3.07 µM
Cholinesterase
  IC50: 133 µM

## COc1cccc2cc[n+](-c3ccc(I)cc3)cc12
Acetylcholinesterase
  IC50: 0.72 µM
Cholinesterase
  IC50: 36.1 µM

## COc1ccc([N+]2=Cc3c(cccc3OC)CC2)cc1
N2a
  IC50: 26.6 µM
[1]
  IC50: 23.8 µM
[2]
  IC50: 27.3 µM
Acetylcholinesterase
  IC50: 1.04 µM
Cholinesterase
  IC50: 113 µM

## COc1cccc2cc[n+](-c3ccccc3)cc12
Acetylcholinesterase
  IC50: 1.42 µM
Cholinesterase
  IC50: 80.3 µM

## COc1cccc2c1C=[N+](c1ccccc1I)CC2
Acetylcholinesterase
  IC50: 1.79 µM
Cholinesterase
  IC50: 28.9 µM

## COc1cccc2c1C=[N+](c1ccccc1Br)CC2
Acetylcholinesterase
  IC50: 1.5 µM
Cholinesterase
  IC50: 27.2 µM

## COc1cccc2c1C=[N+](c1ccccc1Cl)CC2
Acetylcholinesterase
  IC50: > 10 µM
Cholinesterase
  IC50: 190 µM

## COc1ccccc1-[n+]1ccc2cccc(OC)c2c1
Acetylcholinesterase
  IC50: > 10 µM

## COc1cccc2c1C=[N+](c1cc(Cl)cc(Cl)c1)CC2
Acetylcholinesterase
  IC50: > 10 µM

## COc1cccc2cc[n+](-c3cc(Cl)cc(Cl)c3)cc12
Acetylcholinesterase
  IC50: > 10 µM

## COc1cccc2cc[n+](-c3ccc(Br)cc3)cc12
N2a
  IC50: 20.8 µM
[1]
  IC50: 19.8 µM
[2]
  IC50: > 50 µM
Acetylcholinesterase
  IC50: 0.19 µM
Cholinesterase
  IC50: 21.6 µM

## COc1cccc2c1C=[N+](c1ccccc1C(F)(F)F)CC2
Acetylcholinesterase
  IC50: > 10 µM

## COc1cccc2c1C=[N+](c1ccc(I)cc1)CC2
Acetylcholinesterase
  IC50: 1.01 µM
Cholinesterase
  IC50: 58.1 µM

## COc1cccc2cc[n+](-c3ccccc3C)cc12
Acetylcholinesterase
  IC50: 2.89 µM
Cholinesterase
  IC50: 243 µM

## COc1cccc2c1C=[N+](c1ccccc1F)CC2
Acetylcholinesterase
  IC50: 2.94 µM
Cholinesterase
  IC50: 75 µM

## COc1cccc2cc[n+](-c3ccccc3I)cc12
Acetylcholinesterase
  IC50: 2.06 µM
Cholinesterase
  IC50: 36.9 µM

## COc1cccc2c1C=[N+](c1cccc(Br)c1)CC2
Acetylcholinesterase
  IC50: > 10 µM

## COc1cccc2cc[n+](-c3ccc(Cl)cc3)cc12
Acetylcholinesterase
  IC50: 0.17 µM
Cholinesterase
  IC50: 104 µM

## COc1cccc2c1C=[N+](c1ccc(Cl)cc1)CC2
Acetylcholinesterase
  IC50: 0.32 µM
Cholinesterase
  IC50: 62.1 µM

## COc1cccc2c1C=[N+](c1cccc(C#N)c1)CC2
Acetylcholinesterase
  IC50: 5.13 µM
Cholinesterase
  IC50: 110 µM

## COc1ccc(-[n+]2ccc3cccc(OC)c3c2)cc1
N2a
  IC50: > 50 µM
[1]
  IC50: > 50 µM
[2]
  IC50: > 50 µM
Acetylcholinesterase
  IC50: 0.14 µM
Cholinesterase
  IC50: 3.84 µM

## COc1cccc2cc[n+](-c3ccccc3Br)cc12
Acetylcholinesterase
  IC50: 5.23 µM
Cholinesterase
  IC50: 89.5 µM

## COc1cccc2c1C=[N+](c1cccc(C)c1)CC2
Acetylcholinesterase
  IC50: 2.89 µM
Cholinesterase
  IC50: 35.9 µM

## COc1cccc2cc[n+](-c3cccc(C)c3)cc12
Acetylcholinesterase
  IC50: 2.21 µM
Cholinesterase
  IC50: 30.6 µM

## COc1cccc2cc[n+](-c3ccc(F)cc3)cc12
Acetylcholinesterase
  IC50: 0.67 µM
Cholinesterase
  IC50: 143 µM

## COc1cccc2cc[n+](-c3cccc(Br)c3)cc12
Acetylcholinesterase
  IC50: > 10 µM

## COc1cccc2c1C=[N+](c1ccc(Br)cc1Br)CC2
N2a
  IC50: 4.26 µM
[1]
  IC50: 6.03 µM
[2]
  IC50: 6.13 µM
Acetylcholinesterase
  IC50: 3.72 µM
Cholinesterase
  IC50: 116 µM

## COc1cccc(-[n+]2ccc3cccc(OC)c3c2)c1
Acetylcholinesterase
  IC50: 6.9 µM
Cholinesterase
  IC50: 98.3 µM

## COc1cccc2cc[n+](-c3ccc(Br)cc3Br)cc12
N2a
  IC50: > 50 µM
[1]
  IC50: > 50 µM
[2]
  IC50: > 50 µM
Acetylcholinesterase
  IC50: 0.57 µM
Cholinesterase
  IC50: 131 µM

## COc1cccc2c1C=[N+](c1ccc(C)cc1)CC2
Acetylcholinesterase
  IC50: 0.53 µM
Cholinesterase
  IC50: 47.1 µM

## COc1cccc2c1C=[N+](c1ccc(C(F)(F)F)cc1)CC2
Acetylcholinesterase
  IC50: 1.94 µM
Cholinesterase
  IC50: 221 µM

## COc1cccc2cc[n+](-c3cccc(Cl)c3)cc12
Acetylcholinesterase
  IC50: 9.45 µM
Cholinesterase
  IC50: 36.4 µM

## COc1cccc2c1C=[N+](c1cccc(F)c1)CC2
Acetylcholinesterase
  IC50: > 10 µM

## COc1cccc2cc[n+](-c3cccc(F)c3)cc12
Acetylcholinesterase
  IC50: 9.13 µM
Cholinesterase
  IC50: > 250 µM

## COc1cccc2cc[n+](-c3ccc(Cl)cc3Cl)cc12
Acetylcholinesterase
  IC50: 3.42 µM
Cholinesterase
  IC50: 232 µM

## COc1cccc2c1C=[N+](c1ccc(I)cc1F)CC2
Acetylcholinesterase
  IC50: 1.06 µM
Cholinesterase
  IC50: 128 µM

## COc1cccc2cc[n+](-c3ccccc3C#N)cc12
Acetylcholinesterase
  IC50: 1.75 µM
Cholinesterase
  IC50: 59.4 µM

## COc1cccc2cc[n+](-c3c(F)cccc3F)cc12
Acetylcholinesterase
  IC50: 2.7 µM
Cholinesterase
  IC50: 48.4 µM
